Test results from ChEMBL document CHEMBL1150225, “Cytotoxic cholestane glycosides from the bulbs of Ornithogalum saundersiae” (J Nat Prod, 2001).

Tests used:
Format in all cases: functional
SNB-19 = test: Cytotoxicity against human SNB19 cells
T47D = test: Cytotoxicity against human T47D cells
SN12C = test: Cytotoxicity against human SN12C cells
LOX IMVI = test: Cytotoxicity against human LOXIMVI cells
OVCAR-4 = test: Cytotoxicity against human OVCAR4 cells
NCI-H460 = test: Cytotoxicity against human NCI-H460 cells
MDA-N = test: Cytotoxicity against human MDA-N cells
A498 = test: Cytotoxicity against human A498 cells
Malme-3M = test: Cytotoxicity against human MALME-3M cells
[1] = Cytotoxicity against human […] cells
HT-29 = test: Cytotoxicity against human HT-29 cells
KM12 = test: Cytotoxicity against human KM12 cells
K562 = test: Cytotoxicity against human K562 cells
MDA-MB-435 = test: Cytotoxicity against human MDA-MB-435 cells
TK-10 = test: Cytotoxicity against human TK10 cells
CAKI-1 = test: Cytotoxicity against human Caki1 cells
SK-MEL-28 = test: Cytotoxicity against human SK-MEL-28 cells
UACC-257 = test: Cytotoxicity against human UACC257 cells
[2] = Cytotoxicity against human MCF7/ADR cells; settings: NCI/ADR-RES
COLO 205 = test: Cytotoxicity against human COLO205 cells
OVCAR-3 = test: Cytotoxicity against human OVCAR-3 cells
HCT-15 = test: Cytotoxicity against human HCT15 cells
HCT-116 = test: Cytotoxicity against human HCT116 cells
SK-MEL-2 = test: Cytotoxicity against human SK-MEL-2 cells
PC-3 = test: Cytotoxicity against human PC3 cells
HCC 2998 = test: Cytotoxicity against human HCC2998 cells
CCRF-CEM = test: Cytotoxicity against human CCRF-CEM cells
[3] = Cytotoxicity against human Hs 578T cells
IGROV-1 = test: Cytotoxicity against human IGROV1 cells
SF-268 = test: Cytotoxicity against human SF268 cells
[4] = read-out: pLC50 (the source's name) (converted)

COc1ccc(C(=O)O[C@H]2[C@H](O[C@@H]3[C@@H](OC(C)=O)[C@H](O[C@H]4C[C@H]5[C@@H]6CC=C7C[C@@H](O)CC[C@]7(C)[C@H]6CC[C@]5(C)[C@@]4(O)[C@H](C)C(=O)CCC(C)C)OC[C@@H]3O)OC[C@@H](O)[C@@H]2O)cc1
GI50 (SNB-19): 12.9 nM | CC50 (SNB-19; [4]): 2880 nM | TGI (SNB-19; read-out: pTGI (converted)): 331 nM | GI50 (T47D): 5.13 nM | CC50 (T47D; [4]): 7760 nM | TGI (T47D; read-out: pTGI (converted)): 1510 nM | GI50 (SN12C): 1290 nM | CC50 (SN12C; [4]): 6760 nM | TGI (SN12C; read-out: pTGI (converted)): 2880 nM | GI50 (LOX IMVI): 0.251 nM | CC50 (LOX IMVI; [4]): 91.2 nM | TGI (LOX IMVI; read-out: pTGI (converted)): 2.29 nM | GI50 (OVCAR-4): 3.63 nM | CC50 (OVCAR-4; [4]): 5750 nM | TGI (OVCAR-4; read-out: pTGI (converted)): 2190 nM | GI50 (NCI-H460): 0.159 nM | CC50 (NCI-H460; [4]): 2190 nM | TGI (NCI-H460; read-out: pTGI (converted)): 33.9 nM | GI50 (MDA-N): 0.776 nM | CC50 (MDA-N; [4]): 490 nM | TGI (MDA-N; read-out: pTGI (converted)): 8.91 nM | GI50 (A498): 0.24 nM | CC50 (A498; [4]): 141 nM | TGI (A498; read-out: pTGI (converted)): 2.19 nM | GI50 (Malme-3M): 0.631 nM | CC50 (Malme-3M; [4]): 2400 nM | TGI (Malme-3M; read-out: pTGI (converted)): 2.29 nM | GI50 [1]: 0.038 nM | CC50 [1, 4]: 2090 nM | TGI ([1]; read-out: pTGI (converted)): 0.219 nM | GI50 (HT-29): 0.363 nM | CC50 (HT-29; [4]): 3720 nM | TGI (HT-29; read-out: pTGI (converted)): 302 nM | GI50 (KM12): 0.407 nM | CC50 (KM12; [4]): 1100 nM | TGI (KM12; read-out: pTGI (converted)): 39.8 nM | GI50 (K562): 0.219 nM | CC50 (K562; [4]): 10000 nM | TGI (K562; read-out: pTGI (converted)): 14.1 nM | GI50 (MDA-MB-435): 0.575 nM | CC50 (MDA-MB-435; [4]): 407 nM | TGI (MDA-MB-435; read-out: pTGI (converted)): 8.91 nM | GI50 (TK-10): 77.6 nM | CC50 (TK-10; [4]): 8910 nM | TGI (TK-10; read-out: pTGI (converted)): 1910 nM | GI50 (CAKI-1): 1.7 nM | CC50 (CAKI-1; [4]): 871 nM | TGI (CAKI-1; read-out: pTGI (converted)): 49 nM | GI50 (SK-MEL-28): 0.182 nM | CC50 (SK-MEL-28; [4]): 25.7 nM | TGI (SK-MEL-28; read-out: pTGI (converted)): 1.1 nM | GI50 (UACC-257): 0.933 nM | CC50 (UACC-257; [4]): 40.7 nM | TGI (UACC-257; read-out: pTGI (converted)): 1.29 nM | GI50 [2]: 24 nM | CC50 [2, 4]: 6610 nM | TGI ([2]; read-out: pTGI (converted)): 2000 nM | GI50 (COLO 205): 1 nM | CC50 (COLO 205; [4]): 288 nM | TGI (COLO 205; read-out: pTGI (converted)): 1.58 nM | GI50 (OVCAR-3): 9.55 nM | CC50 (OVCAR-3; [4]): 4680 nM | TGI (OVCAR-3; read-out: pTGI (converted)): 2000 nM | GI50 (HCT-15): 11 nM | CC50 (HCT-15; [4]): 692 nM | TGI (HCT-15; read-out: pTGI (converted)): 95.5 nM | GI50 (HCT-116): 0.38 nM | CC50 (HCT-116; [4]): 1290 nM | TGI (HCT-116; read-out: pTGI (converted)): 191 nM | GI50 (SK-MEL-2): 0.347 nM | CC50 (SK-MEL-2; [4]): 5500 nM | TGI (SK-MEL-2; read-out: pTGI (converted)): 17 nM | GI50 (PC-3): 0.209 nM | CC50 (PC-3; [4]): 389 nM | TGI (PC-3; read-out: pTGI (converted)): 1.58 nM | GI50 (HCC 2998): 30.2 nM | CC50 (HCC 2998; [4]): 4370 nM | TGI (HCC 2998; read-out: pTGI (converted)): 1910 nM | GI50 (CCRF-CEM): 0.1 nM | CC50 (CCRF-CEM; [4]): 1200 nM | TGI (CCRF-CEM; read-out: pTGI (converted)): 7.08 nM | GI50 [3]: 0.0537 nM | CC50 [3, 4]: 2000 nM | TGI ([3]; read-out: pTGI (converted)): 0.741 nM | GI50 (IGROV-1): 1.51 nM | CC50 (IGROV-1; [4]): 6920 nM | TGI (IGROV-1; read-out: pTGI (converted)): 1910 nM | GI50 (SF-268): 2.4 nM
